Reference: patent US20020111274A1, “1-alkyl-3-[1-(substituted phenyl) benzotriazol-6-yl] uracils” (BASF Aktiengesellschaft, priority 2000, published 2002)

Assays:
Parameters in all cases: scale not given here
CASOB Sicklepod [1] = test: Preemergence herbicidal evaluation, CASOB; assay type: in vivo, Cassia obtusifolia, L.; conditions: preemergence
Procedure, shortened: (§1)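 Seeds mixed with potting soil in cups, then sprayed preemergence with aqueous acetone test solution at about 0.013 to 0.800 kg per hectare equivalent. Cups kept under standard greenhouse care; plants rated on a visual scale four to five weeks after treatment.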

GALAP Galium [2] = test: Preemergence herbicidal evaluation, GALAP; assay type: in vivo, Galium aparine; conditions: preemergence
Procedure, shortened: as §1

AMBEL Ragweed, Common [3] = test: Postemergence herbicidal evaluation, AMBEL; assay type: in vivo, Ambrosia artemisifolia, L.; conditions: postemergence spray, rated about two-three weeks after treatment
Procedure, shortened: (§2)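 For this test, compound in an 80/20 acetone/water vehicle with 1.0% seed oil was sprayed over two-week-old seedlings at about 0.006 to 0.400 kg per hectare. Injury was assessed visually two to three weeks on.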

ZEAMX Corn, Field [4] = test: Preemergence herbicidal evaluation, ZEAMX; assay type: in vivo, Zea mays, L. (Sammel-Bezeichnung); conditions: preemergence
Procedure, shortened: as §1

[5] = test system: CHEAL Lambsquarters, Common; test: Postemergence herbicidal evaluation, CHEAL; assay type: in vivo, Chenopodium album, L.; conditions: postemergence spray, rated about two-three weeks after treatment
Procedure, shortened: as §2

ABUTH Velvetleaf [6] = test: Postemergence herbicidal evaluation, ABUTH; assay type: in vivo, Abutilon theophrasti, Medic.; conditions: postemergence spray, rated about two-three weeks after treatment
Procedure, shortened: as §2

ORYSAT Rice, Tebonnet [7] = test: Postemergence herbicidal evaluation, ORYSAT; assay type: in vivo, Oryza sativa, (L.); conditions: postemergence spray, rated about two-three weeks after treatment
Procedure, shortened: as §2

ECHOG Barnyardgrass [8] = test: Preemergence herbicidal evaluation, ECHOG; assay type: in vivo, Echinochloa crus-galli, (L.) Beau; conditions: preemergence
Procedure, shortened: as §1

ECHOG Barnyardgrass [9] = test: Postemergence herbicidal evaluation, ECHOG; assay type: in vivo, Echinochloa crus-galli, (L.) Beau; conditions: postemergence spray, rated about two-three weeks after treatment
Procedure, shortened: as §2

GLXMAW Soybean, Williams [10] = test: Preemergence herbicidal evaluation, GLXMAW; assay type: in vivo, Glycine max, (L.) Merr. cv Williams; conditions: preemergence
Procedure, shortened: as §1

[11] = test system: IPOHE Morningglory, Ivyleaf; test: Postemergence herbicidal evaluation, IPOHE; assay type: in vivo, Ipomoea hederacea, (L.) Jacq.; conditions: postemergence spray, rated about two-three weeks after treatment
Procedure, shortened: as §2

[12] = test system: IPOHE Morningglory, Ivyleaf; test: Preemergence herbicidal evaluation, IPOHE; assay type: in vivo, Ipomoea hederacea, (L.) Jacq.; conditions: preemergence
Procedure, shortened: as §1

GALAP Galium [13] = test: Postemergence herbicidal evaluation, GALAP; assay type: in vivo, Galium aparine; conditions: postemergence spray, rated about two-three weeks after treatment
Procedure, shortened: as §2

[14] = test system: TRZAWR Wheat, Winter, cv Riband; test: Preemergence herbicidal evaluation, TRZAWR; assay type: in vivo, Triticum aestivum; conditions: preemergence
Procedure, shortened: as §1

AMBEL Ragweed, Common [15] = test: Preemergence herbicidal evaluation, AMBEL; assay type: in vivo, Ambrosia artemisifolia, L.; conditions: preemergence
Procedure, shortened: as §1

CASOB Sicklepod [16] = test: Postemergence herbicidal evaluation, CASOB; assay type: in vivo, Cassia obtusifolia, L.; conditions: postemergence spray, rated about two-three weeks after treatment
Procedure, shortened: as §2

GLXMAW Soybean, Williams [17] = test: Postemergence herbicidal evaluation, GLXMAW; assay type: in vivo, Glycine max, (L.) Merr. cv Williams; conditions: postemergence spray, rated about two-three weeks after treatment
Procedure, shortened: as §2

[18] = test system: TRZAWR Wheat, Winter, cv Riband; test: Postemergence herbicidal evaluation, TRZAWR; assay type: in vivo, Triticum aestivum; conditions: postemergence spray, rated about two-three weeks after treatment
Procedure, shortened: as §2

ORYSAT Rice, Tebonnet [19] = test: Preemergence herbicidal evaluation, ORYSAT; assay type: in vivo, Oryza sativa, (L.); conditions: preemergence
Procedure, shortened: as §1

ABUTH Velvetleaf [20] = test: Preemergence herbicidal evaluation, ABUTH; assay type: in vivo, Abutilon theophrasti, Medic.; conditions: preemergence
Procedure, shortened: as §1

ZEAMX Corn, Field [21] = test: Postemergence herbicidal evaluation, ZEAMX; assay type: in vivo, Zea mays, L. (Sammel-Bezeichnung); conditions: postemergence spray, rated about two-three weeks after treatment
Procedure, shortened: as §2

SETVI Foxtail, Green [22] = test: Postemergence herbicidal evaluation, SETVI; assay type: in vivo, Setaria viridis, (L.) Beau; conditions: postemergence spray, rated about two-three weeks after treatment
Procedure, shortened: as §2

SETVI Foxtail, Green [23] = test: Preemergence herbicidal evaluation, SETVI; assay type: in vivo, Setaria viridis, (L.) Beau; conditions: preemergence
Procedure, shortened: as §1

[24] = test system: CHEAL Lambsquarters, Common; test: Preemergence herbicidal evaluation, CHEAL; assay type: in vivo, Chenopodium album, L.; conditions: preemergence
Procedure, shortened: as §1

C#CCOC(=O)COc1ccc(C)cc1-n1nnc2cc(F)c(-n3c(=O)cc(C(F)(F)F)n(C)c3=O)cc21 [Example 40]
CASOB herbicidal rating (CASOB Sicklepod [1]; rate 0.016 kg/ha): 0.0
CASOB herbicidal rating (CASOB Sicklepod [1]; rate 0.032 kg/ha): 4.0
CASOB herbicidal rating (CASOB Sicklepod [1]; rate 0.062 kg/ha): 3.0
CASOB herbicidal rating (CASOB Sicklepod [1]; rate 0.125 kg/ha): 4.0
GALAP herbicidal rating (GALAP Galium [2]; rate 0.032 kg/ha): 0.0
GALAP herbicidal rating (GALAP Galium [2]; rate 0.062 kg/ha): 7.0
GALAP herbicidal rating (GALAP Galium [2]; rate 0.125 kg/ha): 9.0
Postemergence herbicidal rating AMBEL (AMBEL Ragweed, Common [3]; 0.008 kg/ha): 9.0
Postemergence herbicidal rating AMBEL (AMBEL Ragweed, Common [3]; 0.016 kg/ha): 7.0
Postemergence herbicidal rating AMBEL (AMBEL Ragweed, Common [3]; 0.032 kg/ha): 9.0
Postemergence herbicidal rating AMBEL (AMBEL Ragweed, Common [3]; 0.062 kg/ha): 7.0
ZEAMX herbicidal rating (ZEAMX Corn, Field [4]; rate 0.016 kg/ha): 0.0
ZEAMX herbicidal rating (ZEAMX Corn, Field [4]; rate 0.032 kg/ha): 0.0
ZEAMX herbicidal rating (ZEAMX Corn, Field [4]; rate 0.062 kg/ha): 1.0
ZEAMX herbicidal rating (ZEAMX Corn, Field [4]; rate 0.125 kg/ha): 1.0
Postemergence herbicidal rating CHEAL ([5]; 0.008 kg/ha): 4.0
Postemergence herbicidal rating CHEAL ([5]; 0.016 kg/ha): 3.0
Postemergence herbicidal rating CHEAL ([5]; 0.032 kg/ha): 7.0
Postemergence herbicidal rating CHEAL ([5]; 0.062 kg/ha): 9.0
Postemergence herbicidal rating ABUTH (ABUTH Velvetleaf [6]; 0.008 kg/ha): 9.0
Postemergence herbicidal rating ABUTH (ABUTH Velvetleaf [6]; 0.016 kg/ha): 9.0
Postemergence herbicidal rating ABUTH (ABUTH Velvetleaf [6]; 0.032 kg/ha): 9.0
Postemergence herbicidal rating ABUTH (ABUTH Velvetleaf [6]; 0.062 kg/ha): 9.0
Postemergence herbicidal rating ORYSAT (ORYSAT Rice, Tebonnet [7]; 0.008 kg/ha): 4.0
Postemergence herbicidal rating ORYSAT (ORYSAT Rice, Tebonnet [7]; 0.016 kg/ha): 5.0
Postemergence herbicidal rating ORYSAT (ORYSAT Rice, Tebonnet [7]; 0.032 kg/ha): 5.0
Postemergence herbicidal rating ORYSAT (ORYSAT Rice, Tebonnet [7]; 0.062 kg/ha): 6.5
ECHCG herbicidal rating (ECHOG Barnyardgrass [8]; rate 0.016 kg/ha): 0.0
ECHCG herbicidal rating (ECHOG Barnyardgrass [8]; rate 0.032 kg/ha): 0.0
ECHCG herbicidal rating (ECHOG Barnyardgrass [8]; rate 0.062 kg/ha): 0.0
ECHCG herbicidal rating (ECHOG Barnyardgrass [8]; rate 0.125 kg/ha): 4.0
Postemergence herbicidal rating ECHCG (ECHOG Barnyardgrass [9]; 0.008 kg/ha): 4.0
Postemergence herbicidal rating ECHCG (ECHOG Barnyardgrass [9]; 0.016 kg/ha): 9.0
Postemergence herbicidal rating ECHCG (ECHOG Barnyardgrass [9]; 0.032 kg/ha): 9.0
Postemergence herbicidal rating ECHCG (ECHOG Barnyardgrass [9]; 0.062 kg/ha): 9.0
GLXMAW herbicidal rating (GLXMAW Soybean, Williams [10]; rate 0.016 kg/ha): 0.0
GLXMAW herbicidal rating (GLXMAW Soybean, Williams [10]; rate 0.032 kg/ha): 0.0
GLXMAW herbicidal rating (GLXMAW Soybean, Williams [10]; rate 0.062 kg/ha): 1.0
GLXMAW herbicidal rating (GLXMAW Soybean, Williams [10]; rate 0.125 kg/ha): 0.0
Postemergence herbicidal rating IPOHE ([11]; 0.008 kg/ha): 9.0
Postemergence herbicidal rating IPOHE ([11]; 0.016 kg/ha): 9.0
Postemergence herbicidal rating IPOHE ([11]; 0.032 kg/ha): 9.0
Postemergence herbicidal rating IPOHE ([11]; 0.062 kg/ha): 9.0
IPOHE herbicidal rating ([12]; rate 0.016 kg/ha): 0.0
IPOHE herbicidal rating ([12]; rate 0.032 kg/ha): 1.0
IPOHE herbicidal rating ([12]; rate 0.062 kg/ha): 3.0
IPOHE herbicidal rating ([12]; rate 0.125 kg/ha): 9.0
Postemergence herbicidal rating GALAP (GALAP Galium [13]; 0.008 kg/ha): 1.0
Postemergence herbicidal rating GALAP (GALAP Galium [13]; 0.016 kg/ha): 2.0
Postemergence herbicidal rating GALAP (GALAP Galium [13]; 0.032 kg/ha): 2.0
Postemergence herbicidal rating GALAP (GALAP Galium [13]; 0.062 kg/ha): 5.0
TRZAWR herbicidal rating ([14]; rate 0.016 kg/ha): 0.0
TRZAWR herbicidal rating ([14]; rate 0.032 kg/ha): 0.0
TRZAWR herbicidal rating ([14]; rate 0.062 kg/ha): 0.0
TRZAWR herbicidal rating ([14]; rate 0.125 kg/ha): 2.0
AMBEL herbicidal rating (AMBEL Ragweed, Common [15]; rate 0.016 kg/ha): 0.0
AMBEL herbicidal rating (AMBEL Ragweed, Common [15]; rate 0.032 kg/ha): 4.0
AMBEL herbicidal rating (AMBEL Ragweed, Common [15]; rate 0.062 kg/ha): 3.0
AMBEL herbicidal rating (AMBEL Ragweed, Common [15]; rate 0.125 kg/ha): 4.0
Postemergence herbicidal rating CASOB (CASOB Sicklepod [16]; 0.008 kg/ha): 1.0
Postemergence herbicidal rating CASOB (CASOB Sicklepod [16]; 0.016 kg/ha): 1.0
Postemergence herbicidal rating CASOB (CASOB Sicklepod [16]; 0.032 kg/ha): 3.0
Postemergence herbicidal rating CASOB (CASOB Sicklepod [16]; 0.062 kg/ha): 6.0
Postemergence herbicidal rating GLXMAW (GLXMAW Soybean, Williams [17]; 0.008 kg/ha): 5.5
Postemergence herbicidal rating GLXMAW (GLXMAW Soybean, Williams [17]; 0.016 kg/ha): 6.0
Postemergence herbicidal rating GLXMAW (GLXMAW Soybean, Williams [17]; 0.032 kg/ha): 6.5
Postemergence herbicidal rating GLXMAW (GLXMAW Soybean, Williams [17]; 0.062 kg/ha): 7.0
Postemergence herbicidal rating TRZAWR ([18]; 0.008 kg/ha): 4.0
Postemergence herbicidal rating TRZAWR ([18]; 0.016 kg/ha): 5.0
Postemergence herbicidal rating TRZAWR ([18]; 0.032 kg/ha): 5.5
Postemergence herbicidal rating TRZAWR ([18]; 0.062 kg/ha): 6.5
ORYSAT herbicidal rating (ORYSAT Rice, Tebonnet [19]; rate 0.016 kg/ha): 0.0
ORYSAT herbicidal rating (ORYSAT Rice, Tebonnet [19]; rate 0.032 kg/ha): 0.0
ORYSAT herbicidal rating (ORYSAT Rice, Tebonnet [19]; rate 0.062 kg/ha): 0.0
ORYSAT herbicidal rating (ORYSAT Rice, Tebonnet [19]; rate 0.125 kg/ha): 2.0
ABUTH herbicidal rating (ABUTH Velvetleaf [20]; rate 0.016 kg/ha): 1.0
ABUTH herbicidal rating (ABUTH Velvetleaf [20]; rate 0.032 kg/ha): 9.0
ABUTH herbicidal rating (ABUTH Velvetleaf [20]; rate 0.062 kg/ha): 9.0
ABUTH herbicidal rating (ABUTH Velvetleaf [20]; rate 0.125 kg/ha): 9.0
Postemergence herbicidal rating ZEAMX (ZEAMX Corn, Field [21]; 0.008 kg/ha): 5.0
Postemergence herbicidal rating ZEAMX (ZEAMX Corn, Field [21]; 0.016 kg/ha): 7.5
Postemergence herbicidal rating ZEAMX (ZEAMX Corn, Field [21]; 0.032 kg/ha): 7.5
Postemergence herbicidal rating ZEAMX (ZEAMX Corn, Field [21]; 0.062 kg/ha): 8.5
Postemergence herbicidal rating SETVI (SETVI Foxtail, Green [22]; 0.008 kg/ha): 6.0
Postemergence herbicidal rating SETVI (SETVI Foxtail, Green [22]; 0.016 kg/ha): 9.0
Postemergence herbicidal rating SETVI (SETVI Foxtail, Green [22]; 0.032 kg/ha): 9.0
Postemergence herbicidal rating SETVI (SETVI Foxtail, Green [22]; 0.062 kg/ha): 9.0
SETVI herbicidal rating (SETVI Foxtail, Green [23]; rate 0.016 kg/ha): 0.0
SETVI herbicidal rating (SETVI Foxtail, Green [23]; rate 0.032 kg/ha): 4.0
SETVI herbicidal rating (SETVI Foxtail, Green [23]; rate 0.062 kg/ha): 5.0
SETVI herbicidal rating (SETVI Foxtail, Green [23]; rate 0.125 kg/ha): 6.0
CHEAL herbicidal rating ([24]; rate 0.016 kg/ha): 9.0
CHEAL herbicidal rating ([24]; rate 0.032 kg/ha): 9.0
CHEAL herbicidal rating ([24]; rate 0.062 kg/ha): 9.0
CHEAL herbicidal rating ([24]; rate 0.125 kg/ha): 9.0
